From patent US10150774B2, “Compounds and methods” (INTRA-CELLULAR THERAPIES, INC., priority 2014, dated 2018)

Tested on: PDE1
Assay: Measurement of PDEIB inhibition in vitro using IMAP phosphodiesterase assay kit
Format: biochemical, bovine or human
Text: Example 10: Measurement of PDEIB Inhibition in Vitro Using IMAP Phosphodiesterase Assay Kit
Phosphodiesterase I B (PDEIB) is a calcium/calmodulin dependent phosphodiesterase enzyme that converts cyclic guanosine monophosphate (cGMP) to 5′-guanosine monophosphate (5′-GMP). PDEIB can also convert a modified cGMP substrate, such as the fluorescent molecule cGMP-fluorescein, to the corresponding GMP-fluorescein. The generation of GMP-fluorescein from cGMP-fluorescein can be quantitated, using, for example, the IMAP (Molecular Devices, Sunnyvale, Calif.) immobilized-metal affinity particle reagent.
Briefly, the IMAP reagent binds with high affinity to the free 5′-phosphate that is found in GMP-fluorescein and not in cGMP-fluorescein. The resulting GMP-fluorescein-IMAP complex is large relative to cGMP-5 fluorescein. Small fluorophores that are bound up in a large, slowly tumbling, complex can be distinguished from unbound fluorophores, because the photons emitted as they fluoresce retain the same polarity as the photons used to excite the fluorescence.
In the phosphodiesterase assay, cGMP-fluorescein, which cannot be bound to IMAP, and therefore retains little fluorescence polarization, is converted to GMPfluorescein, which, when bound to IMAP, yields a large increase in fluorescence polarization (mp). Inhibition of phosphodiesterase, therefore, is detected as a decrease in mp.
Materials: All chemicals are available from Sigma-Aldrich (St. Louis, Mo.) except for IMAP reagents (reaction buffer, binding buffer, FL-GMP and IMAP beads), which are available from Molecular Devices (Sunnyvale, Calif.).
Assay: The following phosphodiesterase enzymes may be used: 3′,5′-cyclic-nucleotide specific bovine brain phosphodiesterase (Sigma, St. Louis, Mo.) (predominantly PDEIB) and recombinant full length human PDE1 A and PDE1B (r-hPDE1 A and r-hPDE1B respectively) which may be produced e.g., in HEK or SF9 cells by one skilled in the art. The PDE1 enzyme is reconstituted with 50% glycerol to 2.5 U/mL. One unit of enzyme will hydrolyze 1.0 μmol of 3′,5′-cAMP to 5′-AMP per min at pH 7.5 at 30° C. […]
The FL-GMP conversion reaction is initiated by combining 4 parts enzyme and inhibitor mix with 1 part substrate solution ([…]) in a 384-well microtiter plate. […] The plate is incubated at room temperature for 1 hour to allow IMAP binding to proceed to completion, and then placed in an Envision multimode microplate reader (PerkinElmer, Shelton, Conn.) to measure the fluorescence polarization (mp).
A decrease in GMP concentration, measured as decreased mp, is indicative of inhibition of PDE activity.

selectivity for PDE1 | Compound
good selectivity | CN1C(=O)c2c(nn(Cc3ccc(-c4ccccn4)cc3)c2Nc2ccc(F)cc2)N2CC(C)(C)N=C12 [Example 1, 7,8-Dihydro-2-(4-(pyridine-2-yl)benzyl)-3-(4-fluorophenylamino)-5,7,7-trimethyl-[2H]-imidazo-[1,2-a]pyrazolo[4,3-e]pyrimidin-4(5H)-one]
good selectivity | CCCc1c2c(nn1Cc1ccc(-c3ccc(F)cn3)cc1)N1CC(C)(C)N=C1N(C)C2=O [Example 7, 7,8-Dihydro-2-(4-(5-fluoropyridin2-yl)benzyl)-3-propyl-5,7,7-trimethyl-[2H]-imidazo-[1,2-a]pyrazolo[4,3-e]pyrimidin-4(5H)-one]
good selectivity | CN1C(=O)c2c(nn(Cc3ccc(Cl)cc3)c2Nc2ccc(F)cc2)N2CC(C)(C)N=C12 [Example 9, 7,8-Dihydro-2-(4-chlorobenzyl)-3-(4-fluorophenylamino)-5,7,7-trimethyl-[2H]-imidazo-[1,2-a]pyrazolo[4,3-e]pyrimidin-4(5H)-one]
good selectivity | CCc1c2c(nn1Cc1ccc(-c3ccc(F)cn3)cc1)N1CC(C)(C)N=C1N(C)C2=O [Example 5, 7,8-Dihydro-2-(4-(5-fluoropyridin2-yl)benzyl)-3-ethyl-5,7,7-trimethyl-[2H]-imidazo-[1,2-a]pyrazolo[4,3-e]pyrimidin-4(5H)-one]
